In US4157439A, “Novel nitrosourea derivatives” (priority 1976, dated 1979):
Like-named read-outs stand apart in the source and are kept apart here.

Assays:
leukemia and tumors = conditions: background statement on earlier compounds; cited from earlier work
[1] = background statement on earlier compounds; cited from earlier work
[2] = cited from earlier work
[3] = Acute toxicity in the intraperitoneal administration to BDF1 mice; conditions: mouse, in vivo, ip
From the text: It will be appreciated clearly from the tests results of Table 1 that the novel nitrosourea derivatives according to this invention gave a significant increase in life-span in therapeutic treatment of the leukemia in comparison with streptozotocin as a known anti-leukemic nitrosourea. The novel nitrosourea derivatives according to this invention are further characterized by their low toxicity, thus satisfying their practical application for treating leukemia and tumor diseases. For example, acute toxicity in the intraperitoneal administration to BDF1 mice of typical nitrosourea derivatives according to this invention is shown below: […]

Leukemia L 1210 = test: Anti-leukemic activity on Leukemia L 1210 in mice (survival, percentage increase in life-span); type: in vivo, male BDF1 mice; conditions: for Survival days (mean): untreated control 8.0 days; for Number of survivors (after 60 days): survivors/animals after 60 days
Procedure: The anti-leukemic activity of some typical nitrosourea derivatives of the formula (I) according to this invention was tested on Leukemia L 1210 in mice, details of which are given below. By way of comparison, Streptozotocin was tested in the same way.
Male BDF1 mice, aging about 6-weeks old and weighing 22±1 g were used in groups of 5 animals each for the tests.
Each animal was inoculated with 10^6 cells of L 1210 intraperitoneally,and the test compound in the form as shown below was administered intraperitoneally from the 24th hour after inoculation once a day for 3 consecutive days. The anti-leukemic activity was assessed by comparing the mean survival days of the treated mice to that of the untreated control, i.e. percentage increase in life-span (ILS) which was calculated as follows:
Percentage increase in life-span (ILS)=(T-C/C)×100
T: The mean survival days of the treated animals
C: The mean survival days of the untreated animals
The compounds No. 1 and No. 3 were used in the form of an aqueous solution in distilled water and the compound No. 2 in the form of an aqueous suspension containing 1% CMC.

[4] = background statement on earlier compounds
[5] = dose 4 mg/kg i.p. once a day for 3 days, 60 days observation
[6] = dose 4 mg/kg i.p. once a day for 3 days
[7] = dose 8 mg/kg i.p. once a day for 3 days, 60 days observation
[8] = dose 8 mg/kg i.p. once a day for 3 days
[9] = dose 1 mg/kg i.p. once a day for 3 days, 60 days observation
[10] = dose 2 mg/kg i.p. once a day for 3 days, 60 days observation

Row | SMILES | activity against the leukemia and tumors (leukemia and tumors) | LD50 [3] | ILS (percentage increase in life-span) (Leukemia L 1210; [5]) | Survival days (mean) (Leukemia L 1210; [5]) | Number of survivors (after 60 days) (Leukemia L 1210; [6]) | ILS (percentage increase in life-span) (Leukemia L 1210; [7]) | Survival days (mean) (Leukemia L 1210; [7]) | Number of survivors (after 60 days) (Leukemia L 1210; [8]) | other results
1 | O=NN(CCCl)C(=O)N[C@@H]1O[C@H](CO)[C@@H](O)[C@H](O)[C@H]1O [1-(2-chloroethyl)-3-(β-D-glucopyranosyl)-1-nitrosourea] | remarkably high inhibitory activity against a variety of leukemia and tumors | – | – | – | – | – | – | – | hygroscopicity [1]: somewhat hygroscopic; side effect [2, 4]: low side effect; toxicity [2, 4]: low toxicity
2 | CC(=O)N[C@@H]1[C@@H](OC(C)=O)[C@H](OC(C)=O)[C@@H](COC(C)=O)O[C@H]1NC(=O)N(CCCl)N=O [compound 1, 1-(2-Chloroethyl)-3-(2-acetamido-3,4,6-tri-O-acetyl-2-deoxy-β-D-glucopyranosyl)-1-nitrosourea] | – | 25 mg/kg | 78.8% | 14.3 days | 0/5 | 105.0% | 16.4 days | 0/5 | –
3 | CC(=O)N[C@@H]1[C@@H](O)[C@H](O)[C@@H](CO)O[C@H]1NC(=O)N(CCCl)N=O [compound 2, 1-(2-Chloroethyl)-3-(2-acetamido-2-deoxy-β-D-glucopyranosyl)-1-nitrosourea] | – | 20 mg/kg | 95.0% | 15.6 days | 0/5 | < 495.0% | < 47.6 days | 3/5 | ILS (percentage increase in life-span) (Leukemia L 1210; [9]): 41.3%; Survival days (mean) (Leukemia L 1210; [9]): 11.3 days; Number of survivors (after 60 days) (Leukemia L 1210; dose 1 mg/kg i.p. once a day for 3 days): 0/5; ILS (percentage increase in life-span) (Leukemia L 1210; [10]): 55.0%; Survival days (mean) (Leukemia L 1210; [10]): 12.4 days; Number of survivors (after 60 days) (Leukemia L 1210; dose 2 mg/kg i.p. once a day for 3 days): 0/5
4 | CN(N=O)C(=O)N[C@H]1C(O)O[C@H](CO)[C@@H](O)[C@@H]1O (stereo partly drawn) [compound 3, N-(N'-methyl-N'-nitroso-carbamoyl)-D-glucosamine, reference compound] | insufficient activity against the leukemia and tumors | – | – | – | – | – | – | – | Survival days (mean) (Leukemia L 1210; dose 50 mg/kg i.p. once a day for 3 days, 60 days observation): 12.1 days; Number of survivors (after 60 days) (Leukemia L 1210; dose 50 mg/kg i.p. once a day for 3 days): 0/5; Survival days (mean) (Leukemia L 1210; dose 100 mg/kg i.p. once a day for 3 days, 60 days observation): 10.6 days; Number of survivors (after 60 days) (Leukemia L 1210; dose 100 mg/kg i.p. once a day for 3 days): 0/5; ILS (percentage increase in life-span) (Leukemia L 1210; ip, 50 mg/kg): 51.3%; ILS (percentage increase in life-span) (Leukemia L 1210; ip, 100 mg/kg): 32.5%; side effect ([2]; in vivo): undesirable side effect
